Measurements from US20190330197A1, “SUBSTITUTED NAPHTHALENE DIIMIDES AND THEIR USE” (UCL Business PLC, priority 2015, published 2019).
pIC50: −log10 of the molar value.

Key:
[1] = tested on: human telomeric (F21T) G-quadruplex DNA; assay: FRET quadruplex stabilisation assay, F21T; assay type: binding; conditions: compound at 1 μM, 60 mM potassium cacodylate buffer pH 7.4
From the text: (§1) The ability of the naphthalene diimide compounds to stabilize quadruplex DNA sequences was investigated using a fluorescence resonance energy transfer (FRET) assay modified to be used as a high-throughput screen in a 96-well format. Several quadruplex sequences were studied (including the human telomeric G-quadruplex DNA sequence 5′-FAM-d(GGG[TTAGGG]3)-TAMRA-3′ and the duplex sequence 5′-FAM-d[…]-HEG-[…]-TAMRA-3′ (HEG linker: [(—CH2—CH2—O—)6.
(§2) The labelled oligonucleotides have attached to them the donor fluorophore FAM: 6-carboxyfluorescein and the acceptor fluorophore TAMRA: 6-carboxytetramethylrhodamine. The FRET probe sequences were diluted from stock to the correct concentration (400 nM) in a 60 mM potassium cacodylate buffer (pH 7.4) and then annealed by heating to 85° C. for 10 min, followed by cooling to room temperature in the heating block. The compound was stored as a 10 mM stock solution in DMSO; final solutions (at 2× concentration) were prepared using 10 mM HCl in the initial 1:10 dilution, after which 60 mM potassium cacodylate buffer (pH 7.4) was used in all subsequent steps. The maximum HCl concentration in the reaction volume (at a ligand concentration of 20 μM) is thus 200 μM, well within the range of the buffer used. Relevant controls were also performed to check for interference with the assay. 96-Well plates (MJ Research, Waltham, Mass.) were prepared by aliquoting 50 μl of the annealed DNA into each well, followed by 50 μl of the compound solutions. Measurements were made on a DNA Engine Opticon (MJ Research) with excitation at 450-495 nm and detection at 515-545 nm. Fluorescence readings were taken at intervals of 0.5° C. in the range 30-100° C., with a constant temperature being maintained for 30 s prior to each reading to ensure a stable value. Final analysis of the data was carried out using a script written in the program Origin 7.0 (OriginLab Corp., Northampton, Mass.). The advanced curve-fitting function in Origin 7.0 was used for calculation of ΔTm values. All determinations were performed in triplicate or better. Esds in ΔTm are ±0.1° C.

[2] = tested on: Hsp90A sequence from the HSP90 promoter; assay: FRET quadruplex stabilisation assay, Hsp90A; assay type: binding; conditions: compound at 1 μM, 60 mM potassium cacodylate buffer pH 7.4
From the text: as §1, §2

[3] = tested on: Hsp90B sequence from the HSP90 promoter; assay: FRET quadruplex stabilisation assay, Hsp90B; assay type: binding; conditions: compound at 1 μM, 60 mM potassium cacodylate buffer pH 7.4
From the text: as §1, §2

[4] = tested on: Kras21 sequence from the promoter region of the kras gene; assay: FRET quadruplex stabilisation assay, Kras21; assay type: binding; conditions: compound at 1 μM, 60 mM potassium cacodylate buffer pH 7.4
From the text: as §1, §2

[5] = tested on: Kras32 sequence from the promoter region of the kras gene; assay: FRET quadruplex stabilisation assay, Kras32; assay type: binding; conditions: compound at 1 μM, 60 mM potassium cacodylate buffer pH 7.4
From the text: as §1, §2

[6] = tested on: Bcl-2 sequence from the promoter region of the bcl-2 gene; assay: FRET quadruplex stabilisation assay, Bcl-2; assay type: binding; conditions: compound at 1 μM, 60 mM potassium cacodylate buffer pH 7.4
From the text: as §1, §2

[7] = tested on: Tloop (representing duplex DNA); assay: FRET assay, Tloop duplex DNA; assay type: binding; conditions: compound at 1 μM, 60 mM potassium cacodylate buffer pH 7.4
From the text: as §1, §2

A549 (lung cancer) cells = assay: SRB growth inhibition, A549; assay type: cell-based, human; conditions: 96 hr, SRB assay; read-out: short-term 96 hr IC50 A549
Method: (§3) Human cancer cell lines and the somatic human cell line WI-38 (lung fibroblast) were purchased from the American Type Culture Collection. Cell lines were maintained in appropriate medium supplemented with 10% foetal bovine serum (Invitrogen, UK), 2 mM L-glutamine (Invitrogen, Netherlands), and other components as specified by the suppliers. Cell lines were maintained at 37° C., 5% CO2 and routinely passaged. Drugs were dissolved in DMSO and filtered through 0.22 μm pore-size filter units before addition to cell line appropriate media. Cellular growth inhibition was measured using the sulforhodamine B (SRB) assay in 96 well plates. Fifty percent inhibitory concentrations (IC50) were determined by taking the mean absorbance at 540 nm for each drug concentration expressed as a percentage of the absorbance of untreated control wells.

MCF7 (breast) cells = assay: SRB growth inhibition, MCF7; assay type: cell-based, human; conditions: 96 hr, SRB assay; read-out: short-term 96 hr IC50 MCF7
Method: as §3

[8] = tested on: Mia-PaCa2 (pancreatic cancer) cells; assay: SRB growth inhibition, MiaPaCa2; assay type: cell-based, human; conditions: 96 hr, SRB assay; read-out: short-term 96 hr IC50 MiaPaCa2
Method: as §3

[9] = tested on: Panc1 (pancreatic cancer) cells; assay: SRB growth inhibition, Panc1; assay type: cell-based, human; conditions: 96 hr, SRB assay; read-out: short-term 96 hr IC50 Panc1
Method: as §3

[10] = tested on: ALT (Alternative Lengthening of Telomeres) cell line; assay: SRB growth inhibition, ALT; assay type: cell-based, human; conditions: 96 hr, SRB assay; read-out: short-term 96 hr IC50 ALT
Method: as §3

[11] = tested on: WI38 (lung fibroblast) cells; assay: SRB growth inhibition, WI38; assay type: cell-based, human; conditions: 96 hr, SRB assay; read-out: short-term 96 hr IC50 WI38
Method: as §3

| SMILES | ΔTm F21T [1] | ΔTm Hsp90A [2] | ΔTm Hsp90B [3] | ΔTm Kras21 [4] | ΔTm Kras32 [5] | ΔTm Bcl-2 [6] | ΔTm Tloop [7] | pIC50 (A549 (lung cancer) cells) | pIC50 (MCF7 (breast) cells) | pIC50 [8] | pIC50 [9] | pIC50 [10] | pIC50 [11] |
| --- | --- | --- | --- | --- | --- | --- | --- | --- | --- | --- | --- | --- | --- |
| O=C1c2ccc3c4c(c(NCCN5CCCCC5)cc(c24)C(=O)N1CCCN1CCOCC1)C(=O)N(CCCN1CCOCC1)C3=O [Compound 4f, 2,7-bis(3-morpholinopropyl)-4-((2-(piperidin-1-yl)ethyl)amino)benzo[Imn][3,8]phenanthroline-1,3,6,8(2H,7H)-tetraone] | 9.8 °C | 9.1 °C | 8.7 °C | 4.8 °C | 2.2 °C | 5.9 °C | 0.6 °C | 6.70 | 5.95 | 6.97 | 7.08 | 6.27 | 5.27 |
| O=C1c2ccc3c4c(c(NCCCCN5CCCC5)cc(c24)C(=O)N1CCCN1CCOCC1)C(=O)N(CCCN1CCOCC1)C3=O [Compound 4e, 2,7-bis(3-morpholinopropyl)-4-((4-(pyrrolidin-1-yl)butyl)amino)benzo[Imn][3,8]phenanthroline-1,3,6,8(2H,7H)-tetraone] | 15.9 °C | 20.6 °C | 16.9 °C | 11.7 °C | 6.6 °C | 16.1 °C | 0.2 °C | 7.59 | 6.65 | 7.44 | 7.48 | 7.05 | 5.91 |
| O=C1c2ccc3c4c(c(NCCc5ccc(O)cc5)cc(c24)C(=O)N1CCCN1CCOCC1)C(=O)N(CCCN1CCOCC1)C3=O [Compound 4j, 4-((4-hydroxyphenethyl)amino)-2,7-bis(3-morpholinopropyl)benzo[Imn][3,8]phenanthroline-1,3,6,8(2H,7H)-tetraone] | 9 °C | 15.7 °C | 13.8 °C | 6.1 °C | 3.0 °C | 10.0 °C | 0.1 °C | 7.04 | 5.81 | 7.23 | 6.79 | 6.35 | 5.78 |
| CN1CCN(CCCNc2cc3c4c(ccc5c4c2C(=O)N(CCCN2CCOCC2)C5=O)C(=O)N(CCCN2CCOCC2)C3=O)CC1 [Compound 4a, 4-((3-(4-methylpiperazin-1-yl)propyl)amino)-2,7-bis(3-morpholinopropyl)benzo[Imn][3,8]phenanthroline-1,3,6,8(2H,7H)-tetraone] | 14.3 °C | 19.8 °C | 16.5 °C | 9.8 °C | 6.1 °C | 15.8 °C | 0.8 °C | 7.17 | 6.45 | 7.23 | 7.35 | 6.65 | 5.74 |
| O=C1c2ccc3c4c(c(NCCN5CCOCC5)cc(c24)C(=O)N1CCCN1CCOCC1)C(=O)N(CCCN1CCOCC1)C3=O [Compound 4g, 4-((2-morpholinoethyl)amino)-2,7-bis(3-morpholinopropyl)benzo[Imn][3,8]phenanthroline-1,3,6,8(2H,7H)-tetraone] | 6.0 °C | 11.0 °C | 9.4 °C | 2.4 °C | 1.5 °C | 5.8 °C | 1.5 °C | 5.66 | < 4.60 | 6.69 | 6.66 | 4.96 | 4.75 |
| O=C1c2ccc3c4c(c(NCC5CCCO5)cc(c24)C(=O)N1CCCN1CCOCC1)C(=O)N(CCCN1CCOCC1)C3=O (stereo not shown) [Compound 4h, 4-((tetrahydrofurylmethyl)amino)-2,7-bis(3-morpholinopropyl) benzo[Imn][3,8]phenanthroline-1,3,6,8(2H,7H)-tetraone] | 1.4 °C | 3.9 °C | 6.8 °C | 3.4 °C | 1.2 °C | 4.2 °C | 0 °C | 6.84 | 5.99 | 6.86 | 6.09 | 6.15 | 5.73 |
| CCN(CC)CCNc1cc2c3c(ccc4c3c1C(=O)N(CCCN1CCOCC1)C4=O)C(=O)N(CCCN1CCOCC1)C2=O [Compound 4i, 4-((2-(diethylamino)ethyl)amino)-2,7-bis(3-morpholinopropyl)benzo[Imn][3,8]phenanthroline-1,3,6,8(2H,7H)-tetraone] | <2 °C | 2.7 °C | 4.5 °C | 0.7 °C | 0.2 °C | 2.4 °C | 0 °C | 6.08 | 5.48 | 5.96 | 6.04 | 5.57 | 5.26 |
| CN1CCN(CCCNc2cc3c4c(c(NCCCN5CCN(C)CC5)cc5c4c2C(=O)N(CCCN2CCOCC2)C5=O)C(=O)N(CCCN2CCOCC2)C3=O)CC1 [MM41, 4,9-bis((3-(4-methylpiperazine-1-yl)-propyl)amino)-2,7-bis(3-morpholinopropyl)benzo[Imn][3,8]phenanthroline-1,3,6,8(2H,7H)-tetraone, reference compound] | 26.6 °C | 33.1 °C | 28.6 °C | 22.5 °C | 19.8 °C | 26.4 °C | 4.9 °C | 7.72 | 7.15 | 7.96 | 8.52 | 7.20 | 6.64 |
| CN1CCN(CCNc2cc3c4c(ccc5c4c2C(=O)N(CCCN2CCOCC2)C5=O)C(=O)N(CCCN2CCOCC2)C3=O)CC1 [Compound 4b, 4-((2-(4-methylpiperazin-1-yl)ethyl)amino)-2,7-bis(3-morpholinopropyl)benzo[Imn][3,8]phenanthroline-1,3,6,8(2H,7H)-tetraone] | 12.3 °C | 18.1 °C | 15.0 °C | 11.0 °C | 6.1 °C | 15.1 °C | 0.4 °C | 7.07 | 6.50 | 7.32 | 7.34 | 7.07 | 5.83 |
| O=C1c2ccc3c4c(c(NCCc5ccccn5)cc(c24)C(=O)N1CCCN1CCOCC1)C(=O)N(CCCN1CCOCC1)C3=O [Compound 4d, 2,7-bis(3-morpholinopropyl)-4-((2-(pyridin-2-yl)ethyl)amino)benzo[Imn][3,8]phenanthroline-1,3,6,8(2H,7H)-tetraone] | <2 °C | 2.5 °C | <2 °C | 3.0 °C | 1.5 °C | 2.8 °C | 0 °C | 6.89 | 5.97 | 6.66 | 6.47 | 5.89 | 5.65 |
